These results are taken from PMC5940854, “Nitrothiophene carboxamides, a novel narrow spectrum antibacterial series: Mechanism of action and Efficacy” (Scientific Reports, 2018).

One test has as its target T1, AcrB (Escherichia coli, UniProt P31224).
T1 construct: Full length acrB gene was amplified from E. coli; BW25113; His-tag (C); made in house; host or cells: E. coli C43(DE3), plasmid pET21a
Description: Thermal shift assay with CPM dye. Further details: species or system E. coli. The note with it: AcrB vs apo-protein; > 1°C implies binding. As for the experimental part:
AcrB overexpression protocol is adopted from Du. et al.[31]. Full length acrB gene was amplified from E. coli. BW25113 using Forward Primer 5′-[…]-3′ Reverse Primer 5′-[…]-3′ and cloned into the plasmid pET21a. The resultant plasmid that would express AcrB with a C-terminal His-tag is transformed into E. coli strain C43(DE3). The cells are induced on reaching A600 = 0.6 and transferred to 18 °C. The culture is harvested by centrifugation and re-suspended in Buffer A (100 mM Sodium Phosphate, 100 mM NaCl, 10 mM Imidazole, pH = 7.4, 100 µg/ml protease inhibitor cocktail from Roche and 5 U/ml DNase I and 5 mg/ml lysozyme). The cells are lysed at 15000 psi using Emulsiflex and centrifuged at 8000 g for removing cell debris. The membrane is isolated by centrifuging the resultant supernatant at 125000 g (see Coomassie stained SDS-PAGE of the purified protein Figure S9). Membrane solubilisation is done using Buffer A and 1.5% DDM (n-Dodecyl-β-D-Maltoside). Ni-NTA chromatography is used to purify the His-tagged protein and eluted in Buffer A with 300 mM Imidazole and 1.5% DDM.
The assay is performed according to protocols established elsewhere. CPM (N- [4-(7-diethylamino-4-methyl-3-coumarinyl) phenyl] maleimide) is a thiol specific fluorochrome (Excitation 387 nm, Emission 463 nm) and is non-fluorescent in an unbound state. The proteins, on thermal unfolding exposes cysteines allowing the CPM to bind and fluoresce. […]. The thermal denaturation is performed in a fluorimeter that is heated from 25 to 90 °C at a ramp rate of 1 °C/min. The Tm is calculated by analysing the melting profiles using Boltzmann Sigmoid function (GraphPad Prism) and ∆Tm is calculated by measuring the difference between the Tm of inhibitor bound protein and the apo-protein.

The target of test [1] is T2, AcrB efflux pump in E. coli BW25113 (Escherichia coli, UniProt P31224).
T2 construct: endogenous in cells; host or cells: E. coli BW25113 (wild type)
T2 sequence (P0AE06 25-397): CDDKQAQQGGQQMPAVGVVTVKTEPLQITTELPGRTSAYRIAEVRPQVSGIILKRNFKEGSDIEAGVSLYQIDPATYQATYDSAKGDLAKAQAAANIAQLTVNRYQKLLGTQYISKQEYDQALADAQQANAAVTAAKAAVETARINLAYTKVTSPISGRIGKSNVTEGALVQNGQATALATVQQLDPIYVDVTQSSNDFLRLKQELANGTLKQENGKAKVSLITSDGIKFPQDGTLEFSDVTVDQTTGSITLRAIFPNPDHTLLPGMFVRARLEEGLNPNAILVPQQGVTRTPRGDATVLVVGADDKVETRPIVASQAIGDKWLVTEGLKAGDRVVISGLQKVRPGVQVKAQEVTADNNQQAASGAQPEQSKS
T2 sequence (P31224 whole entry): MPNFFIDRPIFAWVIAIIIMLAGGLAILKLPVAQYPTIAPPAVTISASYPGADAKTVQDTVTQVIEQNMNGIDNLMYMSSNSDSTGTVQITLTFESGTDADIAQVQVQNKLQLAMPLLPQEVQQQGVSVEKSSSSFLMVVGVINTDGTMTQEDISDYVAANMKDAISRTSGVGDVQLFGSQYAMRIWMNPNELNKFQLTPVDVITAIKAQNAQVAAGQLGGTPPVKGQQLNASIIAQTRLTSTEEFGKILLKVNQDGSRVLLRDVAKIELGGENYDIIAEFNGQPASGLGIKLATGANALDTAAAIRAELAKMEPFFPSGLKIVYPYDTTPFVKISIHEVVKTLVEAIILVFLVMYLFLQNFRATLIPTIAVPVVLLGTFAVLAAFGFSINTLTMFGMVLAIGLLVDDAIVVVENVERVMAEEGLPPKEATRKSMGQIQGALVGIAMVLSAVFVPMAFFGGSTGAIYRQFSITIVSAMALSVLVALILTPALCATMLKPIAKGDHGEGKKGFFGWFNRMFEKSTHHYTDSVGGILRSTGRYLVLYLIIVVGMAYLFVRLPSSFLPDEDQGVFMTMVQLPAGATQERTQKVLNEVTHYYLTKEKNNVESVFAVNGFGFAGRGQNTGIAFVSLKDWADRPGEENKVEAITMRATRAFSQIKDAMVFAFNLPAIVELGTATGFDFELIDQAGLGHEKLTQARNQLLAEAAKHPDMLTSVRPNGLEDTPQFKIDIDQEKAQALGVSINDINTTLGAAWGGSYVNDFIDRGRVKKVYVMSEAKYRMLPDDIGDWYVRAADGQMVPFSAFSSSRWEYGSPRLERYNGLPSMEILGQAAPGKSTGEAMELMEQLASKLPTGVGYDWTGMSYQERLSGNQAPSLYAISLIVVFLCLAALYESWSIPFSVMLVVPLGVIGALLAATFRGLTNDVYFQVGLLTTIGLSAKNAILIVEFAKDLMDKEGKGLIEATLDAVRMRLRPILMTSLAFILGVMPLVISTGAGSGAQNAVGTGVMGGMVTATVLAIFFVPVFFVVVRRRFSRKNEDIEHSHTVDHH
T2 sequence (P02930 23-493, further chain): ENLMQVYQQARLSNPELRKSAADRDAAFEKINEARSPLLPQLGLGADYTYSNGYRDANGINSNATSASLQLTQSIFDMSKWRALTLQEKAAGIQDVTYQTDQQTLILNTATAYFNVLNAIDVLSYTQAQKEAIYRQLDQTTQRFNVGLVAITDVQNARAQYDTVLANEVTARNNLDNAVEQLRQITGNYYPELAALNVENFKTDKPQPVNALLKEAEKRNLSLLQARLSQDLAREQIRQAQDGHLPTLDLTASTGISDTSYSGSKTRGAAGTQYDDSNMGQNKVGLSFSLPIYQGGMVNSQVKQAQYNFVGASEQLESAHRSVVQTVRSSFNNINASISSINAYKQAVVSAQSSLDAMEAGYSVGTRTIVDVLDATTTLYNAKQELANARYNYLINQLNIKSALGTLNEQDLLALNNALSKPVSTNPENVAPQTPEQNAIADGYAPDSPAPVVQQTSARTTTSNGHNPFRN
As to the kind of experiment: Nile red efflux assay (whole-cell competition). The test is classed as cell-based. As for the experimental part:
The Nile red assay is adopted from Bohnert et al.[18]. An overnight culture of E. coli strain BW25113 is harvested and is resuspended in 20 mM potassium phosphate buffer (pH 7.0) containing 1 mM MgCl2 (PPB). The cells are adjusted to an A660 of 1.0 in PPB and aliquoted into glass tubes (2 ml each). Carbonylcyanide-m-chlorophenylhydrazone (CCCP; a protonophore that uncouples the electron transport chain and thus inhibits AcrB mediated efflux) is added to a final concentration of 10 µM (5 mM stock solution in 50% DMSO) and incubated for 15 minutes before adding the potential competitor at desired concentrations. Nile red is then added (stock solution of 5 mM in 10% dimethyl formamide-90% ethanol [vol/vol]) to a final concentration of 5 µM. The cell suspension is incubated at room temperature on a shaker for 3 hours. The cells are harvested and resuspended in 2 ml PPB in the presence of the competitor. The cell suspension is aliquoted in a fluorimeter cuvette, to which, 100 µl of 1 M Glucose is added to activate the electron transport chain. The rate of efflux is measured by Tefflux50, it is the time taken for 50% of Nile red to be effluxed out in presence of the compounds. The fluorescence is measured (Excitation 552 nm, Emission 636 nm) for 200 seconds.

The subject of test [2] is E. coli ∆acrB JW0451-2. Description: Neutropenic thigh infection, E. coli ∆acrB. The test is classed as in vivo, BALB/c mice.
A further test deals with E. coli BW25113. As to the kind of experiment: Neutropenic thigh infection, E. coli BW25113. The test is classed as in vivo, BALB/c mice. Particulars: Study TI-2014-008, BW25113, 100mg/kg per oral.
Test [3] concerns E. coli yciM knockout strain. As to the kind of experiment: MIC, efflux pump knockout yciM. The test is classed as cell-based. The note with it: Escherichia coli, read-out: MIC yciM. As for the experimental part: (§1) The inoculum used for all the experiments is derived from a single seed lot that is maintained as glycerol stocks at −80 °C and are sub cultured on LB plate for isolated colonies. Single colony of each strain is grown in M9 medium. All test compound stocks and dilutions are prepared in DMSO. Serial two-fold dilutions of compounds are prepared separately, with the concentrations ranging from 2 mg/mL to 0.015 mg/mL. To 150 µl (3–7 × 10^5 CFU/ml) of bacterial culture in 96 well microtitre plates, 3 μL compound from each of the dilutions is added to respective wells to obtain final concentrations ranging from 40 µg/mL to 0.3 µg/mL of the test compounds. Media control, culture control and appropriate reference drug controls are included. […] Growth is monitored by checking absorbance at 600 nm (A600). […] The samples from MIC and above concentrations are plated for MBC (Minimum Bactericidal Concentration). The samples are diluted 1:10 and plated on LB agar plates. […] The killing kinetics is determined by enumerating survivors at various time points following compound exposure. E. coli cells (~10^7 CFU/ml; A600 of 0.1) are treated with various concentrations (40 µg/mL to 0.3 µg/mL) of compounds in a 96-well microtitre plate. […] Data is expressed as the log10 CFU for each drug treatment.

Test [4] deals with E. coli bcr knockout strain. As to the kind of experiment: MIC, efflux pump knockout bcr. The test is classed as cell-based. Particulars: Escherichia coli, read-out: MIC bcr. As for the experimental part:
as §1

The subject of test [5] is E. coli mdtG knockout strain. Description: MIC, efflux pump knockout mdtG. The test is classed as cell-based. Particulars: Escherichia coli, read-out: MIC mdtG. As for the experimental part: as §1
The next test relates to E. coli ∆tolC JW5503-1. As to the kind of experiment: MIC, E. coli ∆tolC. The test is classed as cell-based. Particulars: Escherichia coli, read-out: MIC tolC. As for the experimental part:
as §1, with “plate. At various time intervals (0 to 8 h), 30 μl volumes of treated cultures are serially diluted and plated on LB agar plates.” for “plate.”

For test [6], the system named is E. coli mdtK knockout strain. As to the kind of experiment: MIC, efflux pump knockout mdtK. The test is classed as cell-based. Particulars: Escherichia coli, read-out: MIC mdtK. As for the experimental part: as §1
Test [7] concerns E. coli emrY knockout strain. Description: MIC, efflux pump knockout emrY. The test is classed as cell-based. The note with it: Escherichia coli, read-out: MIC emrY. As for the experimental part:
as §1

For test [8], the system named is E. coli acrF knockout strain. As to the kind of experiment: MIC, efflux pump knockout acrF. The test is classed as cell-based. The note with it: Escherichia coli, read-out: MIC acrF. As for the experimental part:
as §1

In test [9] the test system is E. coli acrZ knockout strain. As to the kind of experiment: MIC, efflux pump knockout acrZ. The test is classed as cell-based. Particulars: Escherichia coli, read-out: MIC acrZ. As for the experimental part: as §1
Test [10] has as its system E. coli hsrA knockout strain. As to the kind of experiment: MIC, efflux pump knockout hsrA. The test is classed as cell-based. The note with it: Escherichia coli, read-out: MIC hsrA. As for the experimental part:
as §1

Test [11] has as its system E. coli mdfA knockout strain. Description: MIC, efflux pump knockout mdfA. The test is classed as cell-based. Particulars: Escherichia coli, read-out: MIC mdfA. As for the experimental part:
as §1

The test system of test [12] is E. coli mdtL knockout strain. Description: MIC, efflux pump knockout mdtL. The test is classed as cell-based. Particulars: Escherichia coli, read-out: MIC mdtL. As for the experimental part: as §1
Test [13] concerns E. coli ∆acrB JW0451-2. As to the kind of experiment: MIC, E. coli ∆acrB. Particulars: Escherichia coli, read-out: MIC acrB. The test is classed as cell-based. As for the experimental part:
as §1, with “plate. At various time intervals (0 to 8 h), 30 μl volumes of treated cultures are serially diluted and plated on LB agar plates.” for “plate.”

Test [14] deals with E. coli emrE knockout strain. Description: MIC, efflux pump knockout emrE. The test is classed as cell-based. Particulars: Escherichia coli, read-out: MIC emrE. As for the experimental part:
as §1

Test [15] deals with E. coli acrD knockout strain. Description: MIC, efflux pump knockout acrD. The test is classed as cell-based. Particulars: Escherichia coli, read-out: MIC acrD. As for the experimental part: as §1
In test [16] the test system is wild-type E. coli CGSC#7636 (BW25113). As to the kind of experiment: MIC, wild-type E. coli. The test is classed as cell-based. The note with it: Escherichia coli, BW25113, E. coli WT BW25113; read-out: MIC WT. As for the experimental part:
as §1, with “plate. At various time intervals (0 to 8 h), 30 μl volumes of treated cultures are serially diluted and plated on LB agar plates.” for “plate.”

Test [17] concerns E. coli mdtB knockout strain. As to the kind of experiment: MIC, efflux pump knockout mdtB. The test is classed as cell-based. Particulars: Escherichia coli, read-out: MIC mdtB. As for the experimental part:
as §1

The test system of test [18] is E. coli emrB knockout strain. As to the kind of experiment: MIC, efflux pump knockout emrB. The test is classed as cell-based. Particulars: Escherichia coli, read-out: MIC emrB. As for the experimental part:
as §1

The subject of test [19] is E. coli macB knockout strain. As to the kind of experiment: MIC, efflux pump knockout macB. The test is classed as cell-based. The note with it: Escherichia coli, read-out: MIC macB. As for the experimental part:
as §1

In brackets after ≈: the same amount, converted by molar mass. Residues, ends and D or L forms follow the SMILES beside them. *: point of attachment. βNA = c1ccc2cc(N*)ccc2c1

T1 sequence (P31224 whole entry): as the sequence (P31224 whole entry) above

For `NC(N)=NCCC[C@H](NC(=O)[C@@H](N)Cc1ccccc1)C(=O)Nc1ccc2ccccc2c1` [PAβN, Phenylalanine-Arginine Beta-Naphthylamide, reference compound] (H-Phe-Arg-βNA), on AcrB, the “∆Tm” value is 3.84 °C. The Tefflux50 turned out to be 200 s in test [1] (1µM compound, time for 50% of Nile red to be effluxed, read for 200 seconds); 200 s in test [1] (9µM compound); 200 s in [1] (27µM compound); 200 s in [1] (81µM compound); 200 s in [1] (100µM compound); 200 s in [1] (200µM compound). In test [1] (400µM compound), the Tefflux50 is 200 s.
For `O=C(O)c1cn(C2CC2)c2cc(N3CCNCC3)c(F)cc2c1=O` [ciprofloxacin, reference compound], the “Log10CFU Mean Diff. vs. Untreated Controls” value is reported as 3.477 Log10CFU with E. coli ∆acrB JW0451-2 [2] (Study TI-2014-007, ∆acrB JW0451-2, 100mg/kg per oral, 6 hours post treatment); 3.098 Log10CFU in the test with E. coli ∆acrB JW0451-2 [2] (Study TI-2014-008, ∆acrB JW0451-2, 100mg/kg per oral); 3.212 Log10CFU in the test with E. coli BW25113.
Regarding `CN(C)[C@@H]1C(O)=C(C(N)=O)C(=O)[C@@]2(O)C(O)=C3C(=O)c4c(O)cccc4[C@@](C)(O)[C@H]3C[C@@H]12` [tetracycline, reference compound], the MIC in [3] was determined as 1.2 µg/mL (≈ 2.7 µM); in test [4], 1.2 µg/mL (≈ 2.7 µM); in test [5] it was 1.2 µg/mL (≈ 2.7 µM); with E. coli ∆tolC JW5503-1 it was 0.3 µg/mL (≈ 0.675 µM); in test [6], 1.2 µg/mL (≈ 2.7 µM); in test [7] it was 1.2 µg/mL (≈ 2.7 µM). Also, the MIC was determined as 1.2 µg/mL (≈ 2.7 µM) in [8]; 1.2 µg/mL (≈ 2.7 µM) in test [9]; 1.2 µg/mL (≈ 2.7 µM) in test [10]; 1.2 µg/mL (≈ 2.7 µM) in test [11]; 1.2 µg/mL (≈ 2.7 µM) in [12]; 0.3 µg/mL (≈ 0.675 µM) in the test on E. coli ∆acrB JW0451-2 [13]. Also, the MIC in test [14], in test [15], in test [16], in [17], in test [18] and in test [19] was 1.2 µg/mL (≈ 2.7 µM) in each case.
